Results on 1 compound are retold here after article PMC8501799, “Constitutive signal bias mediated by the human GHRHR splice variant 1” (Proceedings of the National Academy of Sciences of the …, 2021).

Common to all, as to assay: cAMP accumulation
Experiment [1] deals with T1, WT GHRHR (Homo sapiens, UniProt Q02643).
T1 construct: Comparison of SV1 with full-length or truncated GHRHR that lacks ECD or the first 89 residues (B); expressed in transfected cells; host or cells: HEK293T
T1 sequence (Q02643 23-423): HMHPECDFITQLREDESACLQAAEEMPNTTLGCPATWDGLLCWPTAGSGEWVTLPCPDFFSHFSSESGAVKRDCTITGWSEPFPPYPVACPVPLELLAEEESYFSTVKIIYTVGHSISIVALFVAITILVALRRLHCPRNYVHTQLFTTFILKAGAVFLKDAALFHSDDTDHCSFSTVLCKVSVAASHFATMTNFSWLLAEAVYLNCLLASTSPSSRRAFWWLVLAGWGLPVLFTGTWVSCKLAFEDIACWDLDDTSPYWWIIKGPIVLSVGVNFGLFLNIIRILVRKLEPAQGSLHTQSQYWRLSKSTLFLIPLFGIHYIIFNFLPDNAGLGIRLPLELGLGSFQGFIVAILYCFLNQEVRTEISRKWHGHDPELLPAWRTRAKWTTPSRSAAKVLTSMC
The format is cell-based. The settings on record: for Emax: HEK-293T, HEK293T; for ΔLog (τ/KA): operational model, τ corrected by cell surface expression. The protocol:
(§1) GHRH-stimulated cAMP accumulation was measured by a LANCE Ultra cAMP kit (PerkinElmer). Briefly, HEK293T cells (24 h after transfection with SV1 or GHRHR) or prostate cancer cells were digested by 0.2% (wt/vol) EDTA and washed once with Dulbecco’s phosphate-buffered saline (PBS). Cells were then resuspended with stimulation buffer (Hanks’ balanced salt solution [HBSS] supplemented with 5 mM HEPES, 0.5 mM IBMX, and 0.1% [wt/vol] bovine serum albumin [BSA], pH 7.4) to a density of 0.6 million cells per milliliter and added to 384-well white plates (3,000 cells per well). […] The reaction was stopped by adding 5 μL Eu-cAMP tracer and 5 μL ULight-anti-cAMP. After 1 h RT incubation, TR-FRET signals (excitation: 320 nm, emission: 615 and 665 nm) were measured by an Envision plate reader (PerkinElmer). cAMP concentrations were interpolated by a standard curve.
(§2) All functional study data were analyzed using Prism 7 (GraphPad) and presented as means ± SEM from at least three independent experiments. Concentration-response curves were evaluated with a three-parameter logistic equation. The significance was determined with either two-tailed Student’s t test or one-way ANOVA, and P < 0.05 is considered statistically significant.
(§3) Table S2. Effects of residue mutation or truncation in the ECD of GHRHR on GHRH-induced cAMP […]
(§4) Mutant pEC50 Emax (% WT GHRHR) expression ΔLog (τ/KA) […]
(§5) cAMP accumulation data were analyzed using a three-parameter logistic equation to determine pEC50 and Emax values. pEC50 is the negative logarithm of the molar concentration of agonist that induced half the maximal response. Emax for mutants is expressed as a percentage of the WT GHRHR. Data were analyzed by nonlinear regression using the operational model equation to determine t he logR values (logτ/KA, i.e., logarithm of the transduction ratio). τ is the effi cacy value of the agonist and was corrected by cell surface expression of the receptor. KA is dissociation constant. Changes in transduction ratio (ΔlogR) were calculated to determine the relative effectiveness of the mutants. All values are means ± S.E.M. of at le ast three ind ep en dent experiments (n = 3-5) conducted in quadruplicate. Statistical analysis was carried out by comparing the control responses in the WT GHRHR. **, P < 0.01 and ***, P < 0.001, determined by one-way […]
(§6) Table S4. Effects of residue mutation in the ligand-binding pocket of SV1 on GHRH-induced cAMP […]
(§7) Mutant pEC50 Emax Cell surface expression ΔLog (τ/KA) […]
(§8) effectiveness of the mutants. All values are means ± S.E.M. of four independent experiments (n = 4) conducted in quadruplicate. Statistical analysis was carried out by comparing the control responses in the WT-SV1. *, P < 0.05, **, P < 0.01 and ***, P < 0.001, determined by one-way

Experiment [2] addresses T2, SV1 (Homo sapiens, UniProt Q02643).
T2 sequence (Q02643 90-423 limits assumed): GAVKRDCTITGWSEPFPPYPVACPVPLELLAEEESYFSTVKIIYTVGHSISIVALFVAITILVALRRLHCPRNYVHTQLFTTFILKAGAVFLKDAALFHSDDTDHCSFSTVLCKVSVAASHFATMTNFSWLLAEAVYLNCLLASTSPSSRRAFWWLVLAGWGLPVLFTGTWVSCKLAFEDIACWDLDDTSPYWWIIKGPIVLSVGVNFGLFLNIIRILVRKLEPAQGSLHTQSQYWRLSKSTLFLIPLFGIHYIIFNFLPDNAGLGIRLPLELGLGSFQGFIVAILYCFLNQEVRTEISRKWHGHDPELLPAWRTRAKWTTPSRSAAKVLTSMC
It is filed as cell-based. The conditions noted are these: mean ± SEM; for Emax: HEK-293T, HEK293T; for ΔLog (τ/KA): operational model, τ corrected by cell surface expression. The protocol:
as §1, §2, §3, §4, §5, §6, §7, §8

Experiment [3] deals with GHRHR ΔECD. It is filed as cell-based, human. Here is the method:
as §1, §2, §3, §4
cAMP accumulation data were analyzed using a three-parameter logistic equation to determine pEC50 and Emax values. pEC50 is the negative logarithm of the molar concentration of agonist that induced half the maximal response. Emax for mutants is expressed as a percentage of the WT GHRHR. Data were analyzed by nonlinear regression using the operational model equation to determine t he logR values (logτ/KA, i.e., logarithm of the transduction ratio). τ is the effi cacy value of the agonist and was corrected by cell surface expression of the receptor. KA is dissociation constant. Changes in transduction ratio (ΔlogR) were calculated to determine the relative effectiveness of the mutants. All values are means ± S.E.M. of at le ast three ind ep en dent experiments (n = 3-5) conducted in quadruplicate. Statistical analysis was carried out by comparing the control responses in the WT GHRHR. **, P < 0.01 and ***, P < 0.001, determined by one-way

Where [4] appears, read: Table S4, n = 4 in quadruplicate.

What is called Emax is the maximal effect, on the per cent scale that the assay sets. With `CC[C@H](C)[C@H](NC(=O)[C@H](C)NC(=O)[C@H](CC(=O)O)NC(=O)[C@H](C)NC(=O)[C@@H](N)Cc1ccc(O)cc1)C(=O)N[C@@H](Cc1ccccc1)C(=O)N[C@H](C(=O)N[C@@H](CC(N)=O)C(=O)N[C@@H](CO)C(=O)N[C@@H](Cc1ccc(O)cc1)C(=O)N[C@@H](CCCNC(=N)N)C(=O)N[C@@H](CCCCN)C(=O)N[C@H](C(=O)N[C@@H](CC(C)C)C(=O)NCC(=O)N[C@@H](CCC(N)=O)C(=O)N[C@@H](CC(C)C)C(=O)N[C@@H](CO)C(=O)N[C@@H](C)C(=O)N[C@@H](CCCNC(=N)N)C(=O)N[C@@H](CCCCN)C(=O)N[C@@H](CC(C)C)C(=O)N[C@@H](CC(C)C)C(=O)N[C@@H](CCC(N)=O)C(=O)N[C@@H](CC(=O)O)C(=O)N[C@H](C(=O)N[C@@H](CCSC)C(=O)N[C@@H](CO)C(=O)N[C@@H](CCCNC(=N)N)C(=O)N[C@@H](CCC(N)=O)C(=O)N[C@@H](CCC(N)=O)C(=O)NCC(=O)N[C@@H](CCC(=O)O)C(=O)N[C@@H](CO)C(=O)N[C@@H](CC(N)=O)C(=O)N[C@@H](CCC(N)=O)C(=O)N[C@@H](CCC(=O)O)C(=O)N[C@@H](CCCNC(=N)N)C(=O)NCC(=O)N[C@@H](C)C(=O)N[C@@H](CCCNC(=N)N)C(=O)N[C@@H](C)C(=O)N[C@@H](CCCNC(=N)N)C(=O)N[C@@H](CC(C)C)C(N)=O)[C@@H](C)CC)C(C)C)[C@@H](C)O` [GHRH, growth hormone–releasing hormone], the Emax in experiment [1] (setting [4]) is 100%; in experiment [1] (Table S2, mean ± SEM, n = 3-5 in quadruplicate), 100 ± 1.81%; in experiment [2] (setting [4]), 102 ± 2.28%; in experiment [2] (Table S2, n = 3-5 in quadruplicate), 105 ± 2.2%. Besides, the “ΔLog (τ/KA)” value in experiment [1] (Table S2, relative to WT GHRHR, mean ± SEM) was 0 ± 0.05; in experiment [1] (Table S4, mean ± SEM, n = 4), 0.00 ± 0.09; in experiment [2] (Table S2, relative to WT GHRHR), -2.98 ± 0.04; in experiment [2] (Table S4, n = 4), -3.93 ± 0.10; in experiment [3] (Table S2, operational model, τ corrected by cell surface expression, relative to WT GHRHR, mean ± SEM) it was -4.55 ± 0.04. Besides, in experiment [3] (HEK293T, Fig. 1B), the “cAMP responses after deletion of the entire ECD” value is reported as “diminished cAMP responses”. In addition, the “pEC50 of cAMP accumulation” value in experiment [3] (Table S2, HEK293T, LANCE Ultra cAMP, 30 min RT, 0.5 mM IBMX, mean ± SEM, n = 3-5 in quadruplicate) is recorded as 5.53 ± 0.07. Besides, in experiment [3] (Table S2, HEK293T, mean ± SEM, n = 3-5 in quadruplicate), the “Emax of cAMP accumulation” value was found to be 111.27 ± 3.65 % WT GHRHR.
